Values quoted from earlier work as cited in patent US20130164233A1, “SKIN-WHITENING ESSENCE COMPOSITION CONTAINING TYROSINASE INHIBITOR” (priority 2011, published 2013).

Tested on: skin
Conditions: conventionally

SMILES: NC[C@H]1CC[C@H](C(=O)O)CC1 [tranexamic acid]
- Concentration needed to give whitening effect: higher than 3%
